Tested on: α-glucosidase
Assay: Alpha-glucosidase inhibitory assay
Type: biochemical, Bovine
Conditions: ratio of IC50 values

| times more active towards α-glucosidase enzyme than α-amylase enzyme [times] | Structure (SMILES) |
| --- | --- |
| 21 | CC1=NN(c2ccccc2)C(=O)C1=NNc1ccc(S(N)(=O)=O)cc1 [Compound 3a, 4-(2-(3-Methyl-5-oxo-1-phenyl-1,5-dihydro-4H-pyrazol-4-ylidene) hydrazinyl)benzenesulfonamide] |

Same assay, conditions: read-out: α-Glucosidase IC50 (μM ± SD); mean of three replicates

| Structure (SMILES) | IC50 [µM] |
| --- | --- |
| CC1=NOC(=O)C1=NNc1ccc(S(N)(=O)=O)cc1 [Compound 5, 4-(2-(3-Methyl-5-oxoisoxazol-4(5H)-ylidene)hydrazinyl)benzene-sulfonamide] | 78.7 ± 5.9 |
| CC1=NNC(=O)C1=NNc1ccc(S(N)(=O)=O)cc1 [Compound 4, 4-(2-(3-Methyl-5-oxo-1,5-dihydro-4H-pyrazol-4-ylidene)hydrazinyl)-benzenesulfonamide] | 76 ± 6.1 |
| CC1=NNC(=S)NC(=O)C1/N=N/c1ccc(S(N)(=O)=O)cc1 (stereo not shown) [Compound 7, (E)-4-((7-methyl-5-oxo-3-thioxo-3,4,5,6-tetrahydro-2H-1,2,4-triazepin-6-yl)diazenyl)benzenesulfonamide] | 85.4 ± 2.3 |
| CC1=NCCNC(=O)C1=NNc1ccc(S(N)(=O)=O)cc1 [Compound 8, 4-(2-(5-Methyl-7-oxo-1,2,3,7-tetrahydro-6H-1,4-diazepin-6-ylidene)hydrazinyl)benzenesulfonamide] | 110 ± 6.7 |

The remaining lines, values ahead:

| IC50 [µM] | Structure (SMILES) |
| --- | --- |
| 44.8 ± 3.4 | CC1=NN(c2ccc(F)cc2)C(=O)C1=NNc1ccc(S(N)(=O)=O)cc1 [Compound 3e, 4-(2-(1-(4-Fluorophenyl)-3-methyl-5-oxo-1,5-dihydro-4H-pyrazol-4-ylidene)hydrazinyl)benzenesulfonamide] |
| 99.1 ± 6.8 | CC1=NN(c2ccc(C)cc2)C(=O)C1=NNc1ccc(S(N)(=O)=O)cc1 [Compound 3g, 4-(2-(3-Methyl-5-oxo-1-(p-tolyl)-1,5-dihydro-4H-pyrazol-4-ylidene)-hydrazinyl)benzenesulfonamide] |
| 19.4 ± 2.7 | CC1=NN(c2ccccc2)C(=O)C1=NNc1ccc(S(N)(=O)=O)cc1 [Compound 3a, 4-(2-(3-Methyl-5-oxo-1-phenyl-1,5-dihydro-4H-pyrazol-4-ylidene) hydrazinyl)benzenesulfonamide] |
| 25.6 ± 2.1 | CC1=NN(c2cccc([N+](=O)[O-])c2)C(=O)C1=NNc1ccc(S(N)(=O)=O)cc1 [Compound 3h, 4-(2-(3-Methyl-1-(3-nitrophenyl)-5-oxo-1,5-dihydro-4H-pyrazol-4-ylidene)hydrazinyl)benzenesulfonamide] |
| 55.4 ± 4.8 | CC1=NN(c2cccc(C)c2)C(=O)C1=NNc1ccc(S(N)(=O)=O)cc1 [Compound 3f, 4-(2-(3-Methyl-5-oxo-1-(m-tolyl)-1,5-dihydro-4H-pyrazol-4-ylidene)-hydrazinyl)benzenesulfonamide] |
| 50.2 ± 4.8 | CC1=NN(c2cc(Cl)ccc2Cl)C(=O)C1=NNc1ccc(S(N)(=O)=O)cc1 [Compound 3i, 4-(2-(1-(2,5-Dichlorophenyl)-3-methyl-5-oxo-1,5-dihydro-4H-pyrazol-4-ylidene)hydrazinyl)benzenesulfonamide] |
| 25.1 ± 0.7 | CC1=NN(c2ccc(Cl)cc2)C(=O)C1=NNc1ccc(S(N)(=O)=O)cc1 [Compound 3b, 4-(2-(1-(4-Chlorophenyl)-3-methyl-5-oxo-1,5-dihydro-4H-pyrazol-4-ylidene)hydrazinyl)benzenesulfonamide] |
| 82.7 ± 7.4 | CC1=NN(c2ccccn2)C(=O)C1=NNc1ccc(S(N)(=O)=O)cc1 [Compound 3j, 4-(2-(3-Methyl-5-oxo-1-(pyridin-2-yl)-1,5-dihydro-4H-pyrazol-4-ylidene)hydrazinyl)benzenesulfonamide] |

From article PMC10910856 (RSC Advances, 2024)
